# According to ChEMBL document CHEMBL1201862, “PubChem BioAssay data set” (2004):
#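 The compound was tested at five concentrations on cells cultured in 96-well plates, with a 48-hour exposure period. GI50: concentration for 50% inhibition of growth.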 The source made the active and inactive calls. Rule as the data show it: active = GI50 up to about 1.1 µM and inactive = higher.
# Tests used:
# Assay in all cases: DTP human tumour cell line panel, 48 h
# [1] = test system: UACC-257
# [2] = test system: SR
# [3] = test system: M14
# [4] = test system: NCI-H522
# [5] = test system: OVCAR-5
# [6] = test system: IGROV-1
# [7] = test system: SNB-75
# [8] = test system: HCT-116
# [9] = test system: SF-295
# [10] = test system: Malme-3M
# [11] = test system: SW-620
# [12] = test system: HOP-18
# [13] = test system: M19-MEL
# [14] = test system: U-251
# [15] = test system: SF-268
# [16] = test system: UACC-62
# [17] = test system: CAKI-1
# [18] = test system: RXF 393
# [19] = test system: HCT-15
# [20] = test system: HCC 2998
# [21] = test system: ACHN
# [22] = test system: DLD-1
# [23] = test system: SK-OV-3
# [24] = test system: KM12
# [25] = test system: TK-10
# [26] = test system: EKVX
# [27] = test system: NCI-H226
# [28] = test system: HT-29
# [29] = test system: DMS-273
# [30] = test system: LOX IMVI
# [31] = test system: RPMI-8226
# [32] = test system: OVCAR-8
# [33] = test system: HL-60
# [34] = test system: OVCAR-4
# [35] = test system: NCI-H23
# [36] = test system: A549
# [37] = test system: HOP-62
# [38] = test system: SK-MEL-28
# [39] = test system: K562
# [40] = test system: DMS-114
# [41] = test system: 786-0
# [42] = test system: KM-20L2
# [43] = test system: COLO 205
# [44] = test system: SK-MEL-5
# [45] = test system: HOP-92
# [46] = test system: MOLT-4
# [47] = test system: XF498
# [48] = test system: UO-31
# [49] = test system: OVCAR-3
# [50] = test system: SNB-19
# [51] = test system: NCI-H460
# [52] = test system: SNB-78
# [53] = test system: SN12C
# [54] = test system: A498
# [55] = test system: SF-539
# [56] = test system: LXFL 529
# [57] = test system: SK-MEL-2
# [58] = test system: CCRF-CEM
smiles,measurement,setting,value
Cc1ccc(S(=O)OCc2c(C)c(C)c(COS(=O)c3ccc(C)cc3)c(C)c2C)cc1 (stereo unspecified),GI50,[1],> 100 µM (inactive)
same,GI50,[2],> 100 µM (inactive)
same,GI50,[3],> 100 µM (inactive)
same,GI50,[4],> 100 µM (inactive)
same,GI50,[5],> 100 µM (inactive)
same,GI50,[6],> 100 µM (inactive)
same,GI50,[7],> 100 µM (inactive)
same,GI50,[8],> 100 µM (inactive)
same,GI50,[9],> 100 µM (inactive)
same,GI50,[10],> 100 µM (inactive)
same,GI50,[11],> 100 µM (inactive)
same,GI50,[12],> 100 µM (inactive)
same,GI50,[13],> 100 µM (inactive)
same,GI50,[14],> 100 µM (inactive)
same,GI50,[15],> 100 µM (inactive)
same,GI50,[16],> 100 µM (inactive)
same,GI50,[17],> 100 µM (inactive)
same,GI50,[18],> 100 µM (inactive)
same,GI50,[19],> 100 µM
same,GI50,[20],> 100 µM (inactive)
same,GI50,[21],> 100 µM (inactive)
same,GI50,[22],> 100 µM (inactive)
same,GI50,[23],> 100 µM (inactive)
same,GI50,[24],> 100 µM (inactive)
same,GI50,[25],> 100 µM (inactive)
same,GI50,[26],> 100 µM (inactive)
same,GI50,[27],> 100 µM (inactive)
same,GI50,[28],> 100 µM (inactive)
same,GI50,[29],> 100 µM (inactive)
same,GI50,[30],> 100 µM (inactive)
same,GI50,[31],> 100 µM (inactive)
same,GI50,[32],> 100 µM (inactive)
same,GI50,[33],> 100 µM (inactive)
same,GI50,[34],> 100 µM (inactive)
same,GI50,[35],> 100 µM (inactive)
same,GI50,[36],> 100 µM (inactive)
same,GI50,[37],> 100 µM (inactive)
same,GI50,[38],> 100 µM (inactive)
same,GI50,[39],65.5 µM (inactive)
same,GI50,[40],> 100 µM (inactive)
same,GI50,[41],> 100 µM (inactive)
same,GI50,[42],> 100 µM (inactive)
same,GI50,[43],> 100 µM (inactive)
same,GI50,[44],> 100 µM (inactive)
same,GI50,[45],> 100 µM (inactive)
same,GI50,[46],> 100 µM (inactive)
same,GI50,[47],> 100 µM (inactive)
same,GI50,[48],> 100 µM (inactive)
same,GI50,[49],> 100 µM (inactive)
same,GI50,[50],> 100 µM (inactive)
same,GI50,[51],> 100 µM (inactive)
same,GI50,[52],31.6 µM (inactive)
same,GI50,[53],> 100 µM (inactive)
same,GI50,[54],> 100 µM (inactive)
same,GI50,[55],> 100 µM (inactive)
same,GI50,[56],> 100 µM (inactive)
C/C(=N\NC(=S)Nc1ccc(C(=O)O)cc1)c1ccccn1,GI50,[57],17.6 µM (inactive)
same,GI50,[1],25.4 µM (inactive)
same,GI50,[2],12.2 µM (inactive)
same,GI50,[3],15.1 µM (inactive)
same,GI50,[5],21.3 µM (inactive)
same,GI50,[6],31.8 µM (inactive)
same,GI50,[7],20.5 µM (inactive)
same,GI50,[8],23.5 µM (inactive)
same,GI50,[9],40.4 µM (inactive)
same,GI50,[10],15.5 µM (inactive)
same,GI50,[11],19.2 µM (inactive)
same,GI50,[12],24.7 µM (inactive)
same,GI50,[13],20.1 µM (inactive)
same,GI50,[14],24.2 µM (inactive)
same,GI50,[15],49.9 µM (inactive)
same,GI50,[16],5.04 µM (inactive)
same,GI50,[17],29.5 µM (inactive)
same,GI50,[18],35 µM (inactive)
same,GI50,[19],26.5 µM
same,GI50,[20],15 µM (inactive)
same,GI50,[21],16.7 µM (inactive)
same,GI50,[22],27.7 µM (inactive)
same,GI50,[24],25.5 µM (inactive)
same,GI50,[25],30.6 µM (inactive)
same,GI50,[26],27.9 µM (inactive)
same,GI50,[27],18.2 µM (inactive)
same,GI50,[28],34.7 µM (inactive)
same,GI50,[29],24 µM (inactive)
same,GI50,[30],16.7 µM (inactive)
same,GI50,[31],29.8 µM (inactive)
same,GI50,[32],16 µM (inactive)
same,GI50,[33],20.7 µM (inactive)
same,GI50,[34],15.1 µM (inactive)
same,GI50,[35],36.9 µM (inactive)
same,GI50,[36],39.1 µM (inactive)
same,GI50,[37],30.5 µM (inactive)
same,GI50,[38],44 µM (inactive)
same,GI50,[39],40.1 µM (inactive)
same,GI50,[40],23.1 µM (inactive)
same,GI50,[41],17.4 µM (inactive)
same,GI50,[42],25.8 µM (inactive)
same,GI50,[43],18.4 µM (inactive)
same,GI50,[58],17.4 µM (inactive)
same,GI50,[44],16.9 µM (inactive)
same,GI50,[45],43.6 µM (inactive)
same,GI50,[46],33.3 µM (inactive)
same,GI50,[47],26.4 µM (inactive)
same,GI50,[48],11.6 µM (inactive)
same,GI50,[49],13.7 µM (inactive)
same,GI50,[51],21.6 µM (inactive)
same,GI50,[52],> 100 µM (inactive)
same,GI50,[53],19.7 µM (inactive)
same,GI50,[54],25 µM (inactive)
same,GI50,[55],18.3 µM (inactive)
same,GI50,[56],3.05 µM (inactive)
